Reference: patent publication US6783947B1, “Protecting groups for biological labeling” (Dade Behring Marburg GmbH, priority 1999, dated 2004)
Structures can show the parent of a compound that is named as a salt.

Tests used:
[1] = Storage stability of derivatizing agent, monitored by total LOCI assay signal modulation (three-reagent protocol); format: physicochemical
Procedure: A 50 μL mixture of hcy-ABA-sensitizer beads (0.1 mg/ml) and 2 mM TCEP is added to 5 μL hcy serum calibrator in a reaction cuvette, followed by the addition of 50 μL assay buffer. The mixture is incubated for 417 sec. Then, 50 μL of 5 mM BABA is added and followed by 45 μL assay buffer. Following incubation for 157 sec., 50 μL of Ab-coated acceptor beads (at 0.25-0.5 mg/ml) is added. After incubation for 154 sec., the sample is read.
In Table 2, the three-reagent protocol is used as described previously, with 5 mM BABA stored in a different pH buffer as R-2 (reagent 2).
The activity of BABA is monitored by the amount of total assay signal modulation obtained by LOCI using the three-reagent protocol.
The three-reagent assay protocol using CABA-phosphate as derivatizing agent is also assessed. Similar results are obtained with hcy serum calibrators as in the three-reagent protocol using BABA (not shown). The stability of CABA is also studied. The activity of CABA-phosphate as derivatizing agent is monitored by the amount of total assay signal modulation obtained by LOCI using the three-reagent protocol. In Table 3, the three-reagent assay protocol is used with CABA-phosphate stored at two temperatures in pH 9.0 as R-2; mixed hcy-sensitizer beads and TCEP as R-1; mixed Ab-acceptor beads and alkaline phosphatase as R-3.

[2] = biological target: T1, alkaline phosphatase (Sigma, human placenta) (Homo sapiens, UniProt P05187); experiment: Deprotection of phosphate protecting group by alkaline phosphatase (TLC, NMR); format: biochemical; conditions: mixture of BABA-phosphate and CABA-phosphate, 5 mg in 1 mL pH 8-9 NaOD/D2O, 1 mg (15 units) enzyme, 15 minutes, room temperature
T1 construct: alkaline phosphatase (Sigma, human placenta); purchased Sigma; host or cells: human placenta (tissue-derived)
T1 sequence (P05187 23-506): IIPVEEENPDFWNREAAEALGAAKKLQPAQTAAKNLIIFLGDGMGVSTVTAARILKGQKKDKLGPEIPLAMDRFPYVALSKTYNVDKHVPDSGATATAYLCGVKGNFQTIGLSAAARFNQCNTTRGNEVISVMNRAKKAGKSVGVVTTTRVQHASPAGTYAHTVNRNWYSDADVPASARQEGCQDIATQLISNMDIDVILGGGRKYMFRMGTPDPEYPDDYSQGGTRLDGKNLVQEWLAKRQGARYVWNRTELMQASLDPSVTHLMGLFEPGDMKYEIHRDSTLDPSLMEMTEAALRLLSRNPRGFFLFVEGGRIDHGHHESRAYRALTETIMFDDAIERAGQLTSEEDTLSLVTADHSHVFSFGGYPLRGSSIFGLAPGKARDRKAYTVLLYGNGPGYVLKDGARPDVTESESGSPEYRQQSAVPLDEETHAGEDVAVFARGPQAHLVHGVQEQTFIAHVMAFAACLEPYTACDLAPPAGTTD
Procedure: A mixture of BABA-phosphate and CABA-phosphate (resulting from preparation of BABA-phosphate), 5 mg in 1 mL pH 8-9 NaOD/D2O is treated with 1 mg (15 units) of alkaline phosphatase (Sigma, human placenta) for 15 minutes at room temperature.
Reaction of the crude product of the reaction with alkaline phosphatase, for about ten (10) minutes, with cysteine, results in the disappearance of the first product, deprotected alkylating reagent, and appearance of a more polar product. The latter is assumed to be an adduct of the alkylating reagent and cysteine.

Solubility = format: physicochemical; conditions: over a wide pH range
[3] = Stability of alkylating reagent in the presence of reducing agent TCEP (TLC); format: physicochemical; conditions: 5 mM each in phosphate buffer pH 7, sixteen (16) hours, room temperature

SMILES	stability of BABA in solution ([1]; even at the optimum condition, pH 6.0)	% Modulation (0 to 60 μM) ([1]; 5 mM in 50 mM borate buffer pH 9.0, stored @4° C., 1 wk) [%]	% Modulation (0 to 60 μM) ([1]; 5 mM in 50 mM borate buffer pH 9.0, stored @4° C., 2 wks) [%]	% Modulation (0 to 60 μM) ([1]; 5 mM in 50 mM borate buffer pH 9.0, stored @4° C., 5 wks) [%]	% Modulation (0 to 60 μM) ([1]; 5 mM in 50 mM borate buffer pH 9.0, stored @4° C., 7 wks) [%]	% Modulation (0 to 60 μM) ([1]; 5 mM in 50 mM borate buffer pH 9.0, stored @4° C., 10 wks) [%]	% Modulation (0 to 60 μM) ([1]; 5 mM in 50 mM borate buffer pH 9.0, stored @4° C., 13 wks) [%]	% Modulation (0 to 60 μM) ([1]; 5 mM in 50 mM borate buffer pH 9.0, stored @4° C., o/n) [%]	% Modulation (0 to 60 μM) ([1]; 5 mM in 50 mM borate buffer pH 9.0, stored @37° C., 1 wk) [%]	% Modulation (0 to 60 μM) ([1]; 5 mM in 50 mM borate buffer pH 9.0, stored @37° C., 2 wks) [%]	% Modulation (0 to 60 μM) ([1]; 5 mM in 50 mM borate buffer pH 9.0, stored @37° C., 5 wks) [%]	% Modulation (0 to 60 μM) ([1]; 5 mM in 50 mM borate buffer pH 9.0, stored @37° C., 7 wks) [%]	% Modulation (0 to 60 μM) ([1]; 5 mM in 50 mM borate buffer pH 9.0, stored @37° C., 10 wks) [%]	% Modulation (0 to 60 μM) ([1]; 5 mM in 50 mM borate buffer pH 9.0, stored @37° C., 13 wks) [%]	% Modulation (0 to 60 μM) ([1]; 5 mM in 50 mM borate buffer pH 9.0, stored @37° C., o/n) [%]	shelf life compared with BABA ([1]; three-reagent protocol, Table 3)	removal of the phosphate group by alkaline phosphatase (TLC, NMR) [2]	solubility (Solubility)	reaction of the protected alkylating reagent with TCEP (TLC) [3]
O=C(O)c1ccc(C(=O)CBr)cc1 [BABA, bromoacetylbenzoic acid, reference compound]	limited stability	–	–	–	–	–	–	–	–	–	–	–	–	–	–	–	–	–	–
O=C(O)c1ccc(/C(=C/Cl)OP(=O)(O)O)cc1 [CABA-phosphate, 4-(chloroacetyl)benzoate enol-phosphate sodium salt]	–	54	56	55	54	51	45	57	45	51	50	51	44	35	55	much longer shelf life than BABA	removed	readily soluble	resistant to reaction with TCEP
